Tested on: CAL-51
Assay: drug sensitivity score (DSS), CellTiter-Glo (DSS (AUC-based score)); higher = stronger drug effect (viability inhibition or cytotoxicity); extreme values may be limits of the assay
Conditions: incubation time: 72 h
Outline: (§1)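 Using 20 µl of cell suspension per well, breast cancer cell lines were seeded into 384-well plates pre-loaded with compound at 5 concentrations in 10-fold steps across a compound-specific 10,000-fold range. Incubation lasted 72 h, after which CellTox Green fluorescence at 485/520 nm and then CellTiter-Glo luminescence, following 10 min at room temperature, were recorded. Each plate was normalised to 0.1 % DMSO and a positive kill control before the drug sensitivity score was derived from the area under the fitted dose-response curve.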

| Structure (SMILES) | drug sensitivity score |
| --- | --- |
| CCn1c(-c2nonc2N)nc2cnc(Oc3cccc(NC(=O)c4ccc(OCCN5CCOCC5)cc4)c3)cc21 | 4.84 |
| COc1cc(O)c2c(c1)/C=C/C[C@H](O)[C@H](O)C(=O)/C=C\C[C@H](C)OC2=O [(5Z)-7-Oxozeaenol] | 4.7 |
| CNC(=O)c1cccc(-c2ccc3c(N4CCOC[C@@H]4C)nc(N4CCOC[C@@H]4C)nc3n2)c1 [AZD2014] | 17.4 |
| CN(C)c1nc(N(C)C)nc(N(C)C)n1 [Altretamine] | 0 |
| Nc1cc(C(F)(F)F)c(-c2cc(N3CCOCC3)nc(N3CCOCC3)n2)cn1 [Buparlisib] | 7.02 |
| O=P1(N(CCCl)CCCl)NCCCO1 (stereo unspecified) [Cyclophosphamide] | 0 |
| CNC(=O)c1ccc(N2C(=S)N(c3ccc(C#N)c(C(F)(F)F)c3)C(=O)C2(C)C)cc1F [Enzalutamide] | 6.69 |
| C=C1C[C@@H]2[C@H](CC[C@]3(C)C(=O)CC[C@@H]23)[C@@]2(C)C=CC(=O)C=C12 [Exemestane] | 0 |
| CCOC(=O)CCNc1cc(N2CCc3ccccc3CC2)nc(-c2ccccn2)n1 [GSK-J4] | 21.5 |
| Cc1cc(Nc2cc(CN3CCOCC3)c3nc(C)c(Cc4ccc(Cl)cc4F)n3n2)n[nH]1 [Gandotinib] | 9.68 |
| Oc1ccc2c(c1)CC[C@H](c1ccccc1)[C@@H]2c1ccc(OCCN2CCCC2)cc1 [Lasofoxifene] | 0 |
| COC(=O)c1ccc2c(c1)NC(=O)/C2=C(\Nc1ccc(N(C)C(=O)CN2CCN(C)CC2)cc1)c1ccccc1 [Nintedanib] | 8.21 |
| COCC1(CO)C(=O)C2CCN1CC2 (stereo unspecified) [Prima-1 Met] | 0 |
| CNC(=O)c1ccc(N2C(=S)N(c3ccc(C#N)c(C(F)(F)F)c3)C(=O)C23CCC3)cc1F [RD162] | 0 |
| S=P(N1CC1)(N1CC1)N1CC1 [Thio-TEPA] | 0 |
| CN(C)CCOc1ccc(/C(=C(/CCCl)c2ccccc2)c2ccccc2)cc1 [Toremifene] | 0 |

Tested on: HDQ-P1
Assay: as above
Conditions: incubation time: 72 h
Outline: as §1

| Structure (SMILES) | drug sensitivity score |
| --- | --- |
| CCn1c(-c2nonc2N)nc2cnc(Oc3cccc(NC(=O)c4ccc(OCCN5CCOCC5)cc4)c3)cc21 | 1.87 |
| COc1cc(O)c2c(c1)/C=C/C[C@H](O)[C@H](O)C(=O)/C=C\C[C@H](C)OC2=O [(5Z)-7-Oxozeaenol] | 7.51 |
| CNC(=O)c1cccc(-c2ccc3c(N4CCOC[C@@H]4C)nc(N4CCOC[C@@H]4C)nc3n2)c1 [AZD2014] | 14.8 |
| CN(C)c1nc(N(C)C)nc(N(C)C)n1 [Altretamine] | 0 |
| Nc1cc(C(F)(F)F)c(-c2cc(N3CCOCC3)nc(N3CCOCC3)n2)cn1 [Buparlisib] | 6.14 |
| O=P1(N(CCCl)CCCl)NCCCO1 (stereo unspecified) [Cyclophosphamide] | 0 |
| CNC(=O)c1ccc(N2C(=S)N(c3ccc(C#N)c(C(F)(F)F)c3)C(=O)C2(C)C)cc1F [Enzalutamide] | 0 |
| C=C1C[C@@H]2[C@H](CC[C@]3(C)C(=O)CC[C@@H]23)[C@@]2(C)C=CC(=O)C=C12 [Exemestane] | 0 |
| CCOC(=O)CCNc1cc(N2CCc3ccccc3CC2)nc(-c2ccccn2)n1 [GSK-J4] | 10.5 |
| Cc1cc(Nc2cc(CN3CCOCC3)c3nc(C)c(Cc4ccc(Cl)cc4F)n3n2)n[nH]1 [Gandotinib] | 5.01 |
| Oc1ccc2c(c1)CC[C@H](c1ccccc1)[C@@H]2c1ccc(OCCN2CCCC2)cc1 [Lasofoxifene] | 0 |
| COC(=O)c1ccc2c(c1)NC(=O)/C2=C(\Nc1ccc(N(C)C(=O)CN2CCN(C)CC2)cc1)c1ccccc1 [Nintedanib] | 6.77 |
| COCC1(CO)C(=O)C2CCN1CC2 (stereo unspecified) [Prima-1 Met] | 0 |
| CNC(=O)c1ccc(N2C(=S)N(c3ccc(C#N)c(C(F)(F)F)c3)C(=O)C23CCC3)cc1F [RD162] | 0 |
| S=P(N1CC1)(N1CC1)N1CC1 [Thio-TEPA] | 0 |
| CN(C)CCOc1ccc(/C(=C(/CCCl)c2ccccc2)c2ccccc2)cc1 [Toremifene] | 0 |

Tested on: MDA-MB-453
Assay: as above
Conditions: incubation time: 72 h
Outline: as §1

| Structure (SMILES) | drug sensitivity score |
| --- | --- |
| CCn1c(-c2nonc2N)nc2cnc(Oc3cccc(NC(=O)c4ccc(OCCN5CCOCC5)cc4)c3)cc21 | 0 |
| COc1cc(O)c2c(c1)/C=C/C[C@H](O)[C@H](O)C(=O)/C=C\C[C@H](C)OC2=O [(5Z)-7-Oxozeaenol] | 1.38 |
| CNC(=O)c1cccc(-c2ccc3c(N4CCOC[C@@H]4C)nc(N4CCOC[C@@H]4C)nc3n2)c1 [AZD2014] | 13.5 |
| CN(C)c1nc(N(C)C)nc(N(C)C)n1 [Altretamine] | 0 |
| Nc1cc(C(F)(F)F)c(-c2cc(N3CCOCC3)nc(N3CCOCC3)n2)cn1 [Buparlisib] | 0 |
| O=P1(N(CCCl)CCCl)NCCCO1 (stereo unspecified) [Cyclophosphamide] | 0 |
| CNC(=O)c1ccc(N2C(=S)N(c3ccc(C#N)c(C(F)(F)F)c3)C(=O)C2(C)C)cc1F [Enzalutamide] | 0.159 |
| C=C1C[C@@H]2[C@H](CC[C@]3(C)C(=O)CC[C@@H]23)[C@@]2(C)C=CC(=O)C=C12 [Exemestane] | 0 |
| CCOC(=O)CCNc1cc(N2CCc3ccccc3CC2)nc(-c2ccccn2)n1 [GSK-J4] | 17 |
| Cc1cc(Nc2cc(CN3CCOCC3)c3nc(C)c(Cc4ccc(Cl)cc4F)n3n2)n[nH]1 [Gandotinib] | 0 |
| Oc1ccc2c(c1)CC[C@H](c1ccccc1)[C@@H]2c1ccc(OCCN2CCCC2)cc1 [Lasofoxifene] | 0 |
| COC(=O)c1ccc2c(c1)NC(=O)/C2=C(\Nc1ccc(N(C)C(=O)CN2CCN(C)CC2)cc1)c1ccccc1 [Nintedanib] | 1.67 |
| COCC1(CO)C(=O)C2CCN1CC2 (stereo unspecified) [Prima-1 Met] | 0 |
| CNC(=O)c1ccc(N2C(=S)N(c3ccc(C#N)c(C(F)(F)F)c3)C(=O)C23CCC3)cc1F [RD162] | 0 |
| S=P(N1CC1)(N1CC1)N1CC1 [Thio-TEPA] | 0 |
| CN(C)CCOc1ccc(/C(=C(/CCCl)c2ccccc2)c2ccccc2)cc1 [Toremifene] | 0 |

Tested on: SK-BR-3
Assay: as above
Conditions: incubation time: 72 h
Outline: as §1

| Structure (SMILES) | drug sensitivity score |
| --- | --- |
| CCn1c(-c2nonc2N)nc2cnc(Oc3cccc(NC(=O)c4ccc(OCCN5CCOCC5)cc4)c3)cc21 | 4.64 |
| COc1cc(O)c2c(c1)/C=C/C[C@H](O)[C@H](O)C(=O)/C=C\C[C@H](C)OC2=O [(5Z)-7-Oxozeaenol] | 2.34 |
| CNC(=O)c1cccc(-c2ccc3c(N4CCOC[C@@H]4C)nc(N4CCOC[C@@H]4C)nc3n2)c1 [AZD2014] | 18.4 |
| CN(C)c1nc(N(C)C)nc(N(C)C)n1 [Altretamine] | 0 |
| Nc1cc(C(F)(F)F)c(-c2cc(N3CCOCC3)nc(N3CCOCC3)n2)cn1 [Buparlisib] | 0 |
| O=P1(N(CCCl)CCCl)NCCCO1 (stereo unspecified) [Cyclophosphamide] | 0 |
| CNC(=O)c1ccc(N2C(=S)N(c3ccc(C#N)c(C(F)(F)F)c3)C(=O)C2(C)C)cc1F [Enzalutamide] | 0 |
| C=C1C[C@@H]2[C@H](CC[C@]3(C)C(=O)CC[C@@H]23)[C@@]2(C)C=CC(=O)C=C12 [Exemestane] | 0 |
| CCOC(=O)CCNc1cc(N2CCc3ccccc3CC2)nc(-c2ccccn2)n1 [GSK-J4] | 10.7 |
| Cc1cc(Nc2cc(CN3CCOCC3)c3nc(C)c(Cc4ccc(Cl)cc4F)n3n2)n[nH]1 [Gandotinib] | 3.64 |
| Oc1ccc2c(c1)CC[C@H](c1ccccc1)[C@@H]2c1ccc(OCCN2CCCC2)cc1 [Lasofoxifene] | 0 |
| COC(=O)c1ccc2c(c1)NC(=O)/C2=C(\Nc1ccc(N(C)C(=O)CN2CCN(C)CC2)cc1)c1ccccc1 [Nintedanib] | 0 |
| COCC1(CO)C(=O)C2CCN1CC2 (stereo unspecified) [Prima-1 Met] | 0 |
| CNC(=O)c1ccc(N2C(=S)N(c3ccc(C#N)c(C(F)(F)F)c3)C(=O)C23CCC3)cc1F [RD162] | 0 |
| S=P(N1CC1)(N1CC1)N1CC1 [Thio-TEPA] | 0 |
| CN(C)CCOc1ccc(/C(=C(/CCCl)c2ccccc2)c2ccccc2)cc1 [Toremifene] | 0 |

Tested on: DU-4475
Assay: as above
Conditions: incubation time: 72 h
Outline: as §1

| Structure (SMILES) | drug sensitivity score |
| --- | --- |
| CCn1c(-c2nonc2N)nc2cnc(Oc3cccc(NC(=O)c4ccc(OCCN5CCOCC5)cc4)c3)cc21 | 0.276 |
| COc1cc(O)c2c(c1)/C=C/C[C@H](O)[C@H](O)C(=O)/C=C\C[C@H](C)OC2=O [(5Z)-7-Oxozeaenol] | 20 |
| CNC(=O)c1cccc(-c2ccc3c(N4CCOC[C@@H]4C)nc(N4CCOC[C@@H]4C)nc3n2)c1 [AZD2014] | 7.74 |
| CN(C)c1nc(N(C)C)nc(N(C)C)n1 [Altretamine] | 0 |
| Nc1cc(C(F)(F)F)c(-c2cc(N3CCOCC3)nc(N3CCOCC3)n2)cn1 [Buparlisib] | 1.54 |
| O=P1(N(CCCl)CCCl)NCCCO1 (stereo unspecified) [Cyclophosphamide] | 0 |
| CNC(=O)c1ccc(N2C(=S)N(c3ccc(C#N)c(C(F)(F)F)c3)C(=O)C2(C)C)cc1F [Enzalutamide] | 0 |
| C=C1C[C@@H]2[C@H](CC[C@]3(C)C(=O)CC[C@@H]23)[C@@]2(C)C=CC(=O)C=C12 [Exemestane] | 0 |
| CCOC(=O)CCNc1cc(N2CCc3ccccc3CC2)nc(-c2ccccn2)n1 [GSK-J4] | 13.5 |
| Cc1cc(Nc2cc(CN3CCOCC3)c3nc(C)c(Cc4ccc(Cl)cc4F)n3n2)n[nH]1 [Gandotinib] | 0.384 |
| Oc1ccc2c(c1)CC[C@H](c1ccccc1)[C@@H]2c1ccc(OCCN2CCCC2)cc1 [Lasofoxifene] | 0 |
| COC(=O)c1ccc2c(c1)NC(=O)/C2=C(\Nc1ccc(N(C)C(=O)CN2CCN(C)CC2)cc1)c1ccccc1 [Nintedanib] | 0 |

Source: the supplement of paper PMC4862054
